Patent publication US5475015A, “Benzimidazole derivatives, their preparation and pharmaceutical use” (NeuroSearch A/S, priority 1993, dated 1995)

Assays:
[1] = test system: delayed rectifier K+ channel; experiment: Single channel experiments, inside-out patches of cerebellar granule cell membrane: delayed rectifier; type: cell-based; conditions: 3 μM
Experimental: (§1) All experiments were performed with patch-clamp technique (Hamill et al., Pflugers Arch. 391, 85-100 (1981)). The ion composition of the internal solution was (in mM) 140 KCl, 1 CaCl2, 1 MgCl2, 2 EGTA, 10 HEPES and the external solution contained 140 NaCl, 4 KCl, 2 CaCl2, 1 MgCl2 and 10 HEPES.
(§2) In inside-out patches of cerebellar granule cell membrane single BK channels were activated by for example 5-trifluoromethyl1-(5-trifluoromethyl-2-hydroxyphenyl)-1,3-dihydro-2H-benzimidazole-2-one (3 μM). […] No effect was found on the delayed rectifier K+ channel or on the Cl- channels also present in the patches.

[2] = test system: acetylcholine-contracted guinea-pig ileum; experiment: Guinea-pig ileum experiment (relaxation of acetylcholine-contracted ileum)
Experimental: The compound, 5-trifluoromethyl-1-(5-trifluoromethyl-2-hydroxyphenyl)-1,3-dihydro-2H-benzimidazole-2-one, has been studied for its ability to relax acetylcholine-contracted guinea-pig ileum. The smooth muscle cells of the ileum express many BK channels and the model predicts relaxing effects on the gastrointestinal or urogenital tracts. […] The effect of 30 μM compound is reversed by the BK channel blocker TEA+ (1-3 mM), confirming that the relaxing effect is mediated via BK channels.
Method: Ileum from guinea-pigs are isolated and mounted in an isometric contraction chamber. It is bathed in a physiological Krebs solution at 98° F. The ileum is precontracted with increasing concentrations of acetylcholine (0.015-5.0 μM). The contractions are reversed by including the compound in the bathing solution.

Cl- channels = experiment: Single channel experiments, inside-out patches of cerebellar granule cell membrane: Cl- channels; type: cell-based; conditions: 3 μM
Experimental: as §1, §2

Guinea pig trachea = experiment: Trachea experiment (vagus nerve stimulated pressure increase)
Excerpt: The compound, 5-trifluoromethyl-1-(5-trifluoromethyl-2-hydroxyphenyl)-1,3-dihydro-2H-benzimidazole-2-one, has been studied in a trachea model in which relaxation predicts anti-asthmatic potential.
Method: Guinea pig trachea is isolated with intact vagus nerve. Tubes are inserted into both ends and ligated tightly so the pressure in the fluid-filled lumen can be monitored. Electrical stimulation of the vagus nerve leads to a contraction and a pressure increase. The difference in electrically-stimulated pressure increase in the absence and presence of compound is measured.

[3] = test system: cocaine induced hypermotility; experiment: Cocaine motility test; type: in vivo, NMRI mice
Experimental: The compound, 5-trifluoromethyl-1-(5-trifluoromethyl-2-hydroxyphenyl)-1,3-dihydro-2H-benzimidazole-2-one, has been studied in the cocaine motility test. Cocaine induces hypermotility due to an inhibition of dopamine reuptake. The test is recognized as a test predicting anti-psychotic activity.
Method: Two female NMRI mice (20-25 g) are placed in each test box (normal transparent plexiglas cage, w, l, h=21×39×19 cm ) in the test room for at least 16 hours with food and water ad libitum before the test in order for the animals to habituate to the situation. The test compound is administered i.p. 15 min before saline or 25 mg/kg cocaine i.p. to 32 mice (16 boxes) per dose. Food and water are withdrawn, and the motility is measured as the number of interrupted infrared photo-beams (8 per box placed 5 cm apart and 3 cm over the bottom of the cage) in the next 120 min.

BK channel [4] = experiment: Single channel experiments in cultured bovine aortic smooth muscle cells; type: cell-based; conditions: 3 μM
Experimental: as §1

[5] = test system: calf aortic smooth muscle cells; experiment: Whole-cell current clamp recording of membrane potential; type: cell-based; conditions: 10 μM to the bath
Experimental: as §1
The membrane potential of calf aortic smooth muscle cells was determined in whole-cell recordings using current clamp mode (HEKA EPC-9 patch-clamp amplifier). Due to the high-resistance seal and the large size of these cells the recorded membrane potential stayed stable for periods of 30-60 min, although at somewhat depolarized values (-58--22 mV). Administration of for example 1-(5-trifluoromethyl-2-hydroxyphenyl)-5-trifluoromethyl-1,3-dihydro-2H-benzimidazol-2-one (10 μM) to the bath hyperpolarized the cells after a delay of 1-3 min. The average hyperpolarization was -20 mV (SD=-9 mV, n=7), and the effect was largest in the cells being most depolarized prior to administration of the compound.
The equilibrium potential for K+, Cl-, and Na+ in these experiments were -90 mV, 0 mV, and +90 mV, respectively (cf. ion composition above). Thus, since potassium is the only ion having a reversal potential more negative than the resting membrane potential the observed hyperpolarization induced by the test compound must be explained through an increased potassium conductance.

BK channel [6] = experiment: Single channel experiments, inside-out patches of cerebellar granule cell membrane; type: cell-based; conditions: 3 μM
Experimental: as §1

O=c1[nH]c2cc(C(F)(F)F)ccc2n1-c1cc(C(F)(F)F)ccc1O [Example 6, 1-(2-Hydroxy-5-trifluoromethylphenyl)-5-trifluoromethyl-1,3-dihydro-2H-benzimidazol-2-one]
effect on the delayed rectifier K+ channel [1]: No effect | effect of BK channel blocker TEA+ on the relaxing effect ([2]; 30 μM compound, TEA+ 1-3 mM): reversed | relaxation of acetylcholine-contracted ileum ([2]; 3-30 μM): relaxes the ileum in a dose-dependent way | effect on the Cl- channels (Cl- channels): No effect | potentiation of the relaxing effect of lemakalim (Guinea pig trachea; 10 μM compound): 10 x | relaxation of trachea (Guinea pig trachea; 10-100 μM): relaxes trachea in a dose-dependent way | effect of compound by itself on motility ([3]; 30 mg/kg, without cocaine): weak hyperactivity | antagonism of cocaine induced hypermotility ([3]; 1-10 mg/kg i.p. 15 min before 25 mg/kg cocaine i.p., mice, motility over 120 min): antagonizes cocaine induced hypermotility | activation of the BK channel (BK channel [4]): significantly activated | delay before hyperpolarization of the cells [5]: 1 to 3 min | average hyperpolarization ([5]; current clamp, SD=-9 mV, n=7): -20 mV | increase of the open probability of the BK channel (BK channel [6]): several hundred percent
